The values that follow come from patent US4431650A, “Esters of benzofuranyl acids” (Union Carbide Corporation, priority 1980, dated 1984).

What all share (type): in vivo
Series [1] relates to Corn. Briefly: Phytotoxicity, corn. On the set-up: key: 1 = No plant injury at a dose of 2500 ppm. The settings on record: rating; dose of 2500 ppm.
For series [2], the system named is bean aphid (Aphis fabae Scop.). Briefly: Bean Aphid Foliage Spray Test. The following applies: foliar, foliage spray on nasturtium plants, adults and nymphs, mortality after 24 hour holding period, read-out: LD50 Aphid. The method, then: (§1) Suspensions of the test compounds were prepared by dissolving one gram of compound in 50 milliliters of acetone in which had been dissolved 0.1 gram (10 percent of the weight of compound) of an alkylphenoxy polyethoxyethanol surfactant, as an emulsifying or dispersing agent. The resulting solution was mixed into 150 milliliters of water to give roughly 200 milliliters of a suspension containing the compound in finely divided form. The thus-prepared stock suspension contained 0.5 percent by weight of compound. The concentrations in parts per million by weight employed in the tests described hereinbelow were obtained by appropriate dilutions of the stock suspension with water. The test procedures were as follows:
Adults and nymphal stages of the bean aphid (Aphis fabae Scop.) reared on potted dwarf nasturtium plants at 65°-70° F. and 50-70 percent relative humidity, constituted the test insects. For testing purposes, the number of aphids per pot was standardized to 100-150 by trimming plants containing excess aphids. […]
The potted plants (one pot per compound tested) infested with 100-150 aphids, were placed on a revolving turntable and sprayed with 100-110 milliliters of test compound formulation by use of a DeVilbiss spray gun set at 40 psig. air pressure. […] Percent mortality was recorded for various concentration levels. […]

Series [3] has as its system house flies (Musca domestica, L.). Briefly: Fly Bait Test. The settings on record: po, 24 h, adult flies, bait in 10 percent sugar solution, twenty four hours, read-out: LD50 HF. The method, then: as §1
Four to six day old adult house flies (Musca domestica, L.), reared according to the specifications of the Chemical Specialities Manufacturing Association (Blue Book, McNair-Dorland Co., N.Y. 1954; pages 243-244, 261) under controlled conditions of 80± F. and 50±5 percent relative humidity, were the test insects. The flies were immobilized by anesthetizing with carbon dioxide and twenty five immobilized individuals,males and females, were transferred to a cage consisting of a standard food strainer about five inches in diameter which was inverted over a wrapping-paper-covered surface. […]

Series [4] deals with southern armyworm (Spodoptera eridania, (Cram.)). Nature of the series: Southern Armyworm Leaf Spray Bait Test. The settings on record: 72 h, larvae on sprayed bean leaves, held three days, read-out: LD50 SAW. As to the method:
as §1
Larvae of the southern armyworm (Spodoptera eridania, (Cram.)), reared on Tendergreen bean plants at a temperature of 80°±5° F. and a relative humidity of 50± percent, constituted the test insects.
The test compounds were formulated by diluting the stock suspension with water to give a suspension containing 500 parts of test compound per million parts of final formulation. Potted Tendergreen bean plants of standard height and age were placed on a revolving turntable and sprayed with 100-110 milliliter of test compound formulation by use of a DeVilbiss spray gun set at 10 psig air pressure. […] Percent mortality was recorded for various concentration levels. […]

Series [5] relates to Soybean. Nature of the series: Phytotoxicity, soybean. On the set-up: key: 1 = No plant injury at a dose of 2500 ppm. The following applies: rating; dose of 2500 ppm.
The subject of series [6] is two-spotted mite (Tetranychus urticae Koch). Nature of the series: Mite Foliage Spray Test. The following applies: foliar, 144 h, foliage spray on bean plants, adults and nymphs, mortality count of motile forms after six days, read-out: LD50 Mite. The method, then: as §1
Adults and nymphal stage of the two-spotted mite (Tetranychus urticae Koch), reared on Tendergreen bean plants at 80±5 percent relative humidity, were the test organisms. Infested leaves from a stock culture were placed on the primary leaves of two bean plants six to eight inches in height, growing in a two-and-a-half inch clay pot. 150-200 Mites, a sufficient number for testing, transferred from the excised leaves to the fresh plants in a period of twenty four hours. Following the twenty four hour transfer period, the excised leaves were removed from the infested plants. […]

Series [7] concerns Cott. Briefly: Phytotoxicity, cotton. On the set-up: key: 1 = No plant injury at a dose of 2500 ppm. The following applies: rating; dose of 2500 ppm.
For series [8], the system named is Mexican bean beetle (Epilachna variestis, Muls.). Briefly: Mexican Bean Beetle Leaf Spray Test. The following applies: 72 h, read-out: LD50 MBB. As to the method: as §1
Fourth instar larvae of the Mexican bean beetle (Epilachna variestis, Muls.), reared on Tendergreen bean plants at a temperature of 80°±5° F. and 50±5 percent relative humidity, were the test insects.
The test compounds were formulated by diluting the stock suspension with water to give a suspension containing 500 parts of test compound per million parts of final formulation. Tendergreen bean plants of standard height and age were placed on a revolving turntable and sprayed with 100-110 milliliters of test compound formulation by use of a DeVilbiss spray gun set at 10 psig air pressure. This application, which lasted 25 seconds, was sufficient to wet plants to run-off. […]

Values after ≈ are worked out from the molar mass of the structure shown.

Regarding `C#CC(OC(=O)C(c1cc2ccccc2o1)C(C)C)c1cccc(Oc2ccccc2)c1` (stereo not shown), in series [1], the “Phytotoxicity Corn” value turned out to be 1. In addition, the LC50 was 0.8 µg/mL (≈ 1.88 µM) in series [2]; about 180 µg/mL (≈ 424 µM) in series [3]; 52 µg/mL (≈ 122 µM) in series [4]; 200 µg/mL (≈ 471 µM) in series [6]; 5 µg/mL (≈ 11.8 µM) in series [8]. Further, the “Phytotoxicity Soybean” value in series [5] is given as 1. Besides, the “Phytotoxicity Cott.” value in series [7] stood at 1.

Regarding `CC(C)C(C(=O)OC(C#N)c1cccc(Oc2ccccc2)c1)c1cc2ccccc2o1` (stereo not shown), the “Phytotoxicity Corn” value in series [1] is recorded as 1. Besides, the LC50 in series [2] was about 0.7 µg/mL (≈ 1.65 µM); in series [3] it was 23 µg/mL (≈ 54.1 µM); in series [4] it was about 45 µg/mL (≈ 106 µM); in series [6] it was 210 µg/mL (≈ 494 µM); in series [8], 11 µg/mL (≈ 25.9 µM). Also, the “Phytotoxicity Soybean” value in series [5] is listed as 1. In addition, the “Phytotoxicity Cott.” value in series [7] is 1.
